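In this assay, cells in 96-well plates receive the compound at five concentrations for 48 hours. Endpoints are linearly interpolated between the surrounding concentrations. Abbreviation: GI50, concentration required for 50% inhibition of growth.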 Active and inactive are the calls of the source. Cut-off read from the data, not from the text of the source: active = GI50 up to about 1.1 µM and inactive = higher.
How the values were obtained:
Assay in all cases: NCI anticancer screen, dose series, 48 h
SF-268 = tested on: SF-268
EKVX = tested on: EKVX
HCT-116 = tested on: HCT-116
UO-31 = tested on: UO-31
U-251 = tested on: U-251
CCRF-CEM = tested on: CCRF-CEM
SF-295 = tested on: SF-295
SNB-19 = tested on: SNB-19
HT-29 = tested on: HT-29
OVCAR-3 = tested on: OVCAR-3
OVCAR-4 = tested on: OVCAR-4
IGROV-1 = tested on: IGROV-1
Hs-578T = tested on: Hs-578T
HOP-62 = tested on: HOP-62
RPMI-8226 = tested on: RPMI-8226
MDA-MB-435 = tested on: MDA-MB-435
NCI-H460 = tested on: NCI-H460
CAKI-1 = tested on: CAKI-1
HCC 2998 = tested on: HCC 2998

SMILES	GI50 (SF-268)	GI50 (EKVX)	GI50 (HCT-116)	GI50 (UO-31)	GI50 (U-251)	GI50 (CCRF-CEM)	GI50 (SF-295)	GI50 (SNB-19)	GI50 (HT-29)	GI50 (OVCAR-3)	GI50 (OVCAR-4)	GI50 (IGROV-1)	GI50 (Hs-578T)	GI50 (HOP-62)	GI50 (RPMI-8226)	GI50 (MDA-MB-435)	GI50 (NCI-H460)	GI50 (CAKI-1)	GI50 (HCC 2998)
COc1cc(OC)c2c(C)cc(=O)oc2c1	47.9 µM (inactive)	50.5 µM (inactive)	43.1 µM (inactive)	20.3 µM (inactive)	84.7 µM (inactive)	> 100 µM (inactive)	75.9 µM (inactive)	> 100 µM (inactive)	43.4 µM (inactive)	> 100 µM (inactive)	> 100 µM (inactive)	35.2 µM (inactive)	61.1 µM (inactive)	> 100 µM (inactive)	44.6 µM (inactive)	88.9 µM (inactive)	–	–	–
COc1ccc(/C=C/c2cnc3ccccc3n2)cc1OC	> 100 µM (inactive)	63.1 µM (inactive)	47.2 µM (inactive)	34.7 µM (inactive)	80.2 µM (inactive)	> 100 µM (inactive)	52.8 µM (inactive)	–	36.1 µM (inactive)	93.1 µM (inactive)	34.8 µM (inactive)	> 100 µM (inactive)	89.3 µM (inactive)	68.1 µM (inactive)	71.6 µM (inactive)	44.1 µM (inactive)	30.3 µM (inactive)	74.3 µM (inactive)	–
CC(=O)OCC1OC(n2c3c(c(-c4ccc(Cl)cc4)c(C#N)c2=S)CCCC3)C(OC(C)=O)C(OC(C)=O)C1OC(C)=O (stereo unspecified)	96.6 µM (inactive)	–	33.3 µM (inactive)	4.4 µM (inactive)	88.9 µM (inactive)	40.7 µM (inactive)	37.9 µM (inactive)	41.8 µM (inactive)	57.5 µM (inactive)	21.7 µM (inactive)	25.5 µM (inactive)	45.9 µM (inactive)	–	97.3 µM (inactive)	–	67.3 µM (inactive)	42.5 µM (inactive)	–	> 100 µM (inactive)
O=c1c2c(oc3ccccc13)-c1ccccc1OC2	57.9 µM (inactive)	53.2 µM (inactive)	29.9 µM (inactive)	28.6 µM (inactive)	29 µM (inactive)	> 100 µM (inactive)	> 100 µM (inactive)	–	> 100 µM (inactive)	> 100 µM (inactive)	–	36.7 µM (inactive)	–	88.9 µM (inactive)	> 100 µM (inactive)	> 100 µM (inactive)	–	26.1 µM (inactive)	> 100 µM (inactive)
N#Cc1c(N2CCN(c3ccc([N+](=O)[O-])cc3)CC2)[n+]([O-])c2ccc(-c3ccc([N+](=O)[O-])cc3)cc2[n+]1[O-]	> 100 µM (inactive)	7.28 µM (inactive)	4.56 µM (inactive)	8.59 µM (inactive)	1.25 µM (inactive)	1.28 µM (inactive)	8.51 µM (inactive)	9.18 µM (inactive)	> 67.6 µM (inactive)	> 19.8 µM (inactive)	> 31.2 µM (inactive)	1.69 µM (inactive)	> 75.2 µM (inactive)	1.82 µM (inactive)	5.02 µM (inactive)	39.6 µM (inactive)	2.5 µM (inactive)	5.35 µM (inactive)	–
CCNC1CC(C(C)(C)NCC)CC=C1C (stereo unspecified)	> 100 µM (inactive)	> 100 µM (inactive)	> 100 µM (inactive)	> 100 µM (inactive)	> 100 µM (inactive)	> 100 µM (inactive)	> 100 µM (inactive)	> 100 µM (inactive)	> 100 µM (inactive)	> 100 µM (inactive)	> 100 µM (inactive)	> 100 µM (inactive)	–	> 100 µM (inactive)	–	> 100 µM (inactive)	> 100 µM (inactive)	–	> 100 µM (inactive)
NS(=O)(=O)c1cc2c(cc1Cl)N=C(CCC(=O)O)NS2(=O)=O	> 100 µM (inactive)	> 100 µM (inactive)	> 100 µM (inactive)	> 100 µM (inactive)	> 100 µM (inactive)	–	> 100 µM (inactive)	> 100 µM (inactive)	> 100 µM (inactive)	> 100 µM (inactive)	> 100 µM (inactive)	> 100 µM (inactive)	> 100 µM (inactive)	> 100 µM (inactive)	> 100 µM (inactive)	> 100 µM (inactive)	> 100 µM (inactive)	> 100 µM (inactive)	–
COCC1OC(N2C(=O)NC(=O)[C@@H]3C=C4CCCCC4=C[C@@H]32)C(OC)C1OC (stereo partly specified)	> 100 µM (inactive)	> 100 µM (inactive)	> 100 µM (inactive)	98.9 µM (inactive)	> 100 µM (inactive)	–	> 100 µM (inactive)	> 100 µM (inactive)	> 100 µM (inactive)	> 100 µM (inactive)	> 100 µM (inactive)	> 100 µM (inactive)	68.9 µM (inactive)	> 100 µM (inactive)	> 100 µM (inactive)	> 100 µM (inactive)	> 100 µM (inactive)	–	–
COC(=O)/C=C\COCC1C2CCC(=O)C21 (stereo unspecified)	4.68 µM (inactive)	9.16 µM (inactive)	16.3 µM (inactive)	11.6 µM (inactive)	> 25 µM (inactive)	5.66 µM (inactive)	> 25 µM (inactive)	> 25 µM (inactive)	6.05 µM (inactive)	8.41 µM (inactive)	> 25 µM (inactive)	10.5 µM (inactive)	–	> 25 µM (inactive)	11 µM (inactive)	> 25 µM (inactive)	6.79 µM (inactive)	0.632 µM (active)	> 25 µM (inactive)
Cc1ccc(NC(=O)CCC(CC(=O)C(C)(C)C)=NNC(=O)C(=O)NN)cc1C	> 100 µM (inactive)	> 100 µM (inactive)	–	> 100 µM (inactive)	–	> 100 µM (inactive)	> 100 µM (inactive)	> 100 µM (inactive)	> 100 µM (inactive)	> 100 µM (inactive)	> 100 µM (inactive)	> 100 µM (inactive)	–	> 100 µM (inactive)	> 100 µM (inactive)	–	> 100 µM (inactive)	> 100 µM (inactive)	> 100 µM (inactive)
CC(C)(C)[C@H]1NC(=O)CN1C(=O)OCc1ccccc1	8.07 µM (inactive)	> 100 µM (inactive)	67.3 µM (inactive)	9.35 µM (inactive)	82 µM (inactive)	> 100 µM (inactive)	45.6 µM (inactive)	> 100 µM (inactive)	> 100 µM (inactive)	–	> 100 µM (inactive)	> 100 µM (inactive)	–	> 100 µM (inactive)	87.7 µM (inactive)	> 100 µM (inactive)	> 100 µM (inactive)	–	> 100 µM (inactive)
CC(=O)OCC1=CC2CCC3C(C)(CCC[C@]3(C)COC(C)=O)C23CC[C@H]1C3 (stereo partly specified)	> 100 µM (inactive)	83 µM (inactive)	38.8 µM (inactive)	53.7 µM (inactive)	27.9 µM (inactive)	27.9 µM (inactive)	37.3 µM (inactive)	68.4 µM (inactive)	35.8 µM (inactive)	31.9 µM (inactive)	30.1 µM (inactive)	99.3 µM (inactive)	–	75.9 µM (inactive)	21.6 µM (inactive)	–	> 100 µM (inactive)	39.6 µM (inactive)	22.3 µM (inactive)

Source: ChEMBL document CHEMBL1201862, “PubChem BioAssay data set” (2004)
